Experimental data taken from paper PMC9573387, “The First 5′-Phosphorylated 1,2,3-Triazolyl Nucleoside Analogues with Uracil and Quinazoline-2,4-Dione Moieties: A Synthesis and Antiviral Evaluation” (Molecules, 2022).
Where a name gives a salt, the structure may show the parent alone. Read-outs that look alike come from different tables or passages of the source.

Legend:
HIV = conditions: cited from earlier work
wild-type HIV RT = test system: wild-type HIV RT; parameters: method as in PMID 17434736; conditions: cited from earlier work
[1] = test system: recombinant HIV reverse transcriptases (RT); parameters: method as in PMID 17434736; conditions: cited from earlier work
in vitro = conditions: dog
[2] = test system: A/Puerto Rico/8/34 (H1N1) influenza virus; assay: microbe, parasite or virus in culture; assay type: cell-based; conditions: for IC50: 48 h, A/Puerto Rico/8/34 (H1N1), MDCK cells, read-out: IC50 (50% inhibition of virus replication)
MDCK (ATCC CCL-34) cells [3] = test system: MDCK (ATCC CCL-34) cells
MDCK (ATCC CCL-34) cells [4] = conditions: read-out: CC50 (median cytotoxic concentration); parent nucleoside analogues; cited from earlier work
[5] = test system: A/Puerto Rico/8/34 (H1N1) influenza virus; parameters: method as in PMID 32930935; conditions: parent nucleoside analogues, cited from earlier work; for IC50: A/Puerto Rico/8/34 (H1N1), read-out: IC50 (50% inhibition of virus replication)

Structure (SMILES): Nc1nc(=O)n([C@H]2C[C@@H](CO)C2)cc1F [5-fluoro-1-[cis-3-(hydroxymethyl)-cyclobutyl]-cytosine]
- Anti-HIV activity, inactive up to (HIV; in vitro): > 100 µM

Structure (SMILES): Nc1nc(=O)n([C@H]2C[C@@H](COP(=O)(O)OP(=O)(O)OP(=O)(O)O)C2)cc1F [5′-triphosphate of 5-fluoro-1-[cis-3-(hydroxymethyl)-cyclobutyl]-cytosine]
- IC50 (wild-type HIV RT): 6.9 µM
- IC50 [1]: 4.7 µM

Structure (SMILES): CCOP(=O)(OCC)OC[C@H]1O[C@@H](n2cc(Cn3ccc(=O)[nH]c3=O)nn2)[C@H](O)[C@@H]1O [Compound 11a]
- CC50 (in vitro): > 650 µM
- IC50 ([2]; Influenza A virus, H1N1, MDCK): 434 ± 39 µM

Structure (SMILES): CCOP(=O)(OCC)OC[C@H]1O[C@@H](n2cc(Cn3c(=O)[nH]c(=O)c4ccccc43)nn2)[C@H](O)[C@@H]1O [Compound 11b]
- CC50 (in vitro): > 587 µM
- IC50 ([2]; Influenza A virus, H1N1, MDCK): 411 ± 51 µM

Structure (SMILES): CCOP(=O)(OCC)OC[C@H]1O[C@@H](n2cc(CCCCn3ccc(=O)[nH]c3=O)nn2)[C@H](O)[C@@H]1O [Compound 12a, 1-[4-(2,4-dioxo-pyrimidine-1-yl-butyl)-1,2,3-triazol-1-yl]--D-ribofuranose-5-yl diethyl phosphate]
- CC50 (in vitro): > 596 µM
- Antiviral activity against H1N1 (A/PR/8/34) influenza virus, in words [2]: inactive
- IC50 [2]: 250 ± 22 µM
- IC50 ([2]; Influenza A virus, H1N1, MDCK): > 180 µM

Structure (SMILES): CCOP(=O)(OCC)OC[C@H]1O[C@@H](n2cc(CCCCn3c(=O)[nH]c(=O)c4ccccc43)nn2)[C@H](O)[C@@H]1O [Compound 12b]
- CC50 (in vitro): > 542 µM
- IC50 ([2]; Influenza A virus, H1N1, MDCK): > 542 µM

Structure (SMILES): O=c1ccn(Cc2cn([C@@H]3O[C@H](COP(=O)(Oc4ccccc4)Oc4ccccc4)[C@@H](O)[C@H]3O)nn2)c(=O)[nH]1 [Compound 13a]
- CC50 (in vitro): > 538 µM
- IC50 ([2]; Influenza A virus, H1N1, MDCK): 121 ± 7 µM

Structure (SMILES): O=c1[nH]c(=O)n(Cc2cn([C@@H]3O[C@H](COP(=O)(Oc4ccccc4)Oc4ccccc4)[C@@H](O)[C@H]3O)nn2)c2ccccc12 [Compound 13b]
- CC50 (in vitro): > 494 µM
- Antiviral activity exceeding that of the parent compound ([2]; IC50 versus parent compound 33b): 2 times
- IC50 ([2]; Influenza A virus, H1N1, MDCK): 17.9 ± 3 µM
- Increase of selectivity index over the parent compound ([2]; SI versus parent compound 33b): 7 times

Structure (SMILES): O=c1ccn(CCCCc2cn([C@@H]3O[C@H](COP(=O)(Oc4ccccc4)Oc4ccccc4)[C@@H](O)[C@H]3O)nn2)c(=O)[nH]1 [Compound 14a]
- CC50 (in vitro): > 500 µM
- Antiviral activity against H1N1 (A/PR/8/34) influenza virus, in words [2]: inactive
- IC50 [2]: 183 ± 15 µM
- IC50 ([2]; Influenza A virus, H1N1, MDCK): > 180 µM

Structure (SMILES): O=c1[nH]c(=O)n(CCCCc2cn([C@@H]3O[C@H](COP(=O)(Oc4ccccc4)Oc4ccccc4)[C@@H](O)[C@H]3O)nn2)c2ccccc12 [Compound 14b]
- CC50 (in vitro): 98 ± 6 µM
- SI (selectivity index, CC50/IC50 ratio) [2]: 2
- IC50 ([2]; Influenza A virus, H1N1, MDCK): 51 ± 4 µM
- Increase of cytotoxicity over the parent compound (MDCK (ATCC CCL-34) cells [3]; CC50 versus parent compound 34b): 7 fold

Structure (SMILES): COC(=O)[C@H](C)NP(=O)(OC[C@H]1O[C@@H](n2cc(Cn3ccc(=O)[nH]c3=O)nn2)[C@H](O)[C@@H]1O)Oc1ccccc1 (stereo partly shown) [Compound 17a]
- CC50 (in vitro): > 530 µM
- IC50 ([2]; Influenza A virus, H1N1, MDCK): 25 ± 4 µM

Structure (SMILES): COC(=O)[C@H](C)NP(=O)(OC[C@H]1O[C@@H](n2cc(Cn3c(=O)[nH]c(=O)c4ccccc43)nn2)[C@H](O)[C@@H]1O)Oc1ccccc1 (stereo partly shown) [Compound 17b]
- CC50 (in vitro): > 487 µM
- IC50 ([2]; Influenza A virus, H1N1, MDCK): > 487 µM

Structure (SMILES): COC(=O)[C@H](C)NP(=O)(OC[C@H]1O[C@@H](n2cc(CCCCn3ccc(=O)[nH]c3=O)nn2)[C@H](O)[C@@H]1O)Oc1ccccc1 (stereo partly shown) [Compound 18a]
- CC50 (in vitro): > 463 µM
- Antiviral activity against H1N1 (A/PR/8/34) influenza virus, in words [2]: inactive

Structure (SMILES): COC(=O)[C@H](C)NP(=O)(OC[C@H]1O[C@@H](n2cc(CCCCn3c(=O)[nH]c(=O)c4ccccc43)nn2)[C@H](O)[C@@H]1O)Oc1ccccc1 (stereo partly shown) [Compound 18b]
- CC50 (in vitro): > 456 µM
- IC50 ([2]; Influenza A virus, H1N1, MDCK): > 456 µM

Structure (SMILES): O=c1ccn(Cc2cn([C@@H]3O[C@H](CO[PH](=O)O)[C@@H](O)[C@H]3O)nn2)c(=O)[nH]1 [Compound 23a, 1-[4-(2,4-dioxo-pyrimidine-1-yl-methyl)-1,2,3-triazol-1-yl]--D-ribofuranose-5-yl H-phosphonate triethylammonium salt]
- CC50 (in vitro): > 612 µM
- IC50 ([2]; Influenza A virus): 204 ± 28 µM

Structure (SMILES): O=c1[nH]c(=O)n(Cc2cn([C@@H]3O[C@H](CO[PH](=O)O)[C@@H](O)[C@H]3O)nn2)c2ccccc12 [Compound 23b]
- CC50 (in vitro): > 555 µM
- IC50 ([2]; Influenza A virus): 176 ± 21 µM

Structure (SMILES): O=c1ccn(CCCCc2cn([C@@H]3O[C@H](CO[PH](=O)O)[C@@H](O)[C@H]3O)nn2)c(=O)[nH]1 [Compound 24a]
- CC50 (in vitro): > 564 µM
- Antiviral activity against H1N1 (A/PR/8/34) influenza virus, in words [2]: inactive
- IC50 ([2]; Influenza A virus): 218 ± 32 µM

Structure (SMILES): O=c1[nH]c(=O)n(CCCCc2cn([C@@H]3O[C@H](CO[PH](=O)O)[C@@H](O)[C@H]3O)nn2)c2ccccc12 [Compound 24b]
- CC50 (in vitro): > 516 µM
- IC50 ([2]; Influenza A virus, H1N1, MDCK): > 516 µM

Structure (SMILES): O=c1ccn(Cc2cn([C@@H]3O[C@H](COP(=O)(O)O)[C@@H](O)[C@H]3O)nn2)c(=O)[nH]1 [Compound 25a]
- CC50 (in vitro): > 494 µM
- IC50 ([2]; Influenza A virus, H1N1, MDCK): > 494 µM

Structure (SMILES): O=c1[nH]c(=O)n(Cc2cn([C@@H]3O[C@H](COP(=O)(O)O)[C@@H](O)[C@H]3O)nn2)c2ccccc12 [Compound 25b]
- CC50 (in vitro): > 458 µM
- IC50 ([2]; Influenza A virus): 159 ± 19 µM

Structure (SMILES): O=c1ccn(CCCCc2cn([C@@H]3O[C@H](COP(=O)(O)O)[C@@H](O)[C@H]3O)nn2)c(=O)[nH]1 [Compound 26a]
- CC50 (in vitro): > 463 µM
- Antiviral activity against H1N1 (A/PR/8/34) influenza virus, in words [2]: inactive
- IC50 ([2]; Influenza A virus): 195 ± 26 µM

Structure (SMILES): O=c1[nH]c(=O)n(CCCCc2cn([C@@H]3O[C@H](COP(=O)(O)O)[C@@H](O)[C@H]3O)nn2)c2ccccc12 [Compound 26b]
- CC50 (in vitro): > 430 µM
- IC50 ([2]; Influenza A virus): > 430 µM

Structure (SMILES): O=c1ccn(Cc2cn([C@@H]3O[C@H](CO)[C@@H](O)[C@H]3O)nn2)c(=O)[nH]1 [Compound 33a]
- CC50 (MDCK (ATCC CCL-34) cells [4]): > 880 µM
- IC50 [5]: > 880 µM
- Antiviral activity against H1N1 (A/PR/8/34) influenza virus, in words [5]: completely inactive

Structure (SMILES): O=c1[nH]c(=O)n(Cc2cn([C@@H]3O[C@H](CO)[C@@H](O)[C@H]3O)nn2)c2ccccc12 [Compound 33b]
- SI (selectivity index, CC50/IC50 ratio) [2]: 3
- IC50 [5]: 42 ± 5 µM

Structure (SMILES): O=c1ccn(CCCCc2cn([C@@H]3O[C@H](CO)[C@@H](O)[C@H]3O)nn2)c(=O)[nH]1 [Compound 34a]
- CC50 (MDCK (ATCC CCL-34) cells [4]): > 817 µM
- IC50 [5]: > 180 µM
- Antiviral activity against H1N1 (A/PR/8/34) influenza virus, in words [5]: inactive

Structure (SMILES): O=c1[nH]c(=O)n(CCCCc2cn([C@@H]3O[C@H](CO)[C@@H](O)[C@H]3O)nn2)c2ccccc12 [Compound 34b]
- CC50 (MDCK (ATCC CCL-34) cells [4]): > 719 µM
- IC50 [5]: 30 ± 4 µM

Structure (SMILES): CCC(CC)O[C@@H]1C=C(C(=O)O)C[C@H](N)[C@H]1NC(C)=O [Oseltamivir carboxylate, reference compound]
- CC50 (in vitro): > 200 µM
- SI (selectivity index, CC50/IC50 ratio) [2]: >667
- IC50 ([2]; Influenza A virus): 0.3 ± 0.06 µM

Structure (SMILES): COC(=O)[C@H](C)NP(=O)(OC[C@H]1O[C@@H](n2cc(C)c(=O)[nH]c2=O)C[C@@H]1N=[N+]=[N-])Oc1ccccc1 (stereo partly drawn) [ProTide-ZDV, 5′-(phenylmethoxy-L-alaninyl)phosphate of Zidovudine]
- Better activity against HIV than the parent nucleoside analogue (HIV; ProTide versus parent): more than 100 times

Structure (SMILES): NC(=O)c1ncn([C@@H]2O[C@H](CO)[C@@H](O)[C@H]2O)n1 [Ribavirin, reference compound]
- SI (selectivity index, CC50/IC50 ratio) [2]: 3
- IC50 ([2]; Influenza A virus): 31 ± 9 µM
- CC50 (MDCK (ATCC CCL-34) cells [3]; dog): 94 ± 48 µM

Structure (SMILES): CC(N)C12CC3CC(CC(C3)C1)C2 (stereo not shown) [Rimantadine, reference compound]
- SI (selectivity index, CC50/IC50 ratio) [2]: 4
- IC50 ([2]; Influenza A virus, H1N1, MDCK): 77 ± 8 µM
- CC50 (MDCK (ATCC CCL-34) cells [3]; read-out: CC50 (median cytotoxic concentration), MDCK cells, MTT, concentration causing 50% cell death): 340 ± 16 µM
